Values of other authors in patent publication US20130210624A1, “COMPOSITION FOR IMPROVING PLANT HEALTH AND METHOD OF APPLYING SAME” (priority 2012, published 2013).

System: oranges
Conditions: single prebloom foliar application; Albrigo 1999

Substance: phosphite
- flower number: increased flower number
- yield: increased yield
